Reference: PubChem BioAssay AID179 (DTP/NCI, 2004)
“And” between values parts separate entries of the source, which are not always exact repeats. Equal values may be shown once. The source made the active and inactive calls.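 Rule for the calls: active = compounds giving half or more protection of infected cells from virus-caused growth loss, again on retest; inactive = the rest.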 Where a SMILES comes first, the peptide text is derived from it. [ ]: non-standard residue; d: D form. pGlu = O=C1CC[CH](C(=O)O)N1; Thz = O=C(O)[CH]1CSCN1

System: CEM cells HIV-1 protection, formazan growth assay
Assay: NCI AIDS Antiviral Assay
Details: for IC50: measured here: growth of uninfected CEM cells
How it was run: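 CEM (human) cells, HIV-1 infected vs uninfected, 5-point dosing, formazan growth read-out. Retest threshold 50% protection.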

Row | Structure (SMILES) | EC50 [µM] | IC50 | outcome
1 | Oc1ccccc1/C=N/N=C/c1ccccc1O | > 200 | > 200 µM | –
2 | Nc1ncnc2c1ncn2C1OC(CO)CC1F (stereo unspecified) | – | > 200 µM and 191 µM | –
3 | Nc1ccc(C(=O)N/C(=C\c2cccc([N+](=O)[O-])c2)c2nc3ccccc3[nH]2)cc1 | – | – | inactive
4 | CCOC(=O)C1CCN(C(=O)c2ccccc2)c2scc(-c3ccccc3)c2C1=O (stereo unspecified) | > 100 | 13.8 µM | –
5 | Cn1c2c(c3ccccc3c1=O)C(=O)c1ccccc1-2 | > 14.5 | 7.41 µM | –
6 | CO[C@@H]1CCC=C(C=O)O1 | – | – | inactive
7 | O=[N+]([O-])c1cccc(C2=NOC(C3CCCCC3)C2)c1 (stereo unspecified) | > 36.3 | > 36.3 µM | –
8 | CC(=O)C1C(=O)C(=O)N(c2ccc([N+](=O)[O-])cc2Cl)C1=O (stereo unspecified) | > 200 | 95.5 µM | –
9 | Cc1nn(-c2ccccc2)c2c1N=C(C(=O)O)CC(c1ccccc1)=N2 | > 200 | 91.2 µM | –
10 | CC(=O)OC(C#N)CC(C)(C)/[N+]([O-])=[N+](\[O-])C(C)(C)CC(C#N)OC(C)=O (stereo unspecified) | > 20 | 3.63 µM | –
11 | O=[P+](O)c1cccnc1 | – | – | inactive
12 | CC(=O)Nc1ccc(C(=O)N2N=C(C)/C(=C/c3cccc(O)c3)C2=O)cc1 | > 138 | > 138 µM | –
13 | Cc1cc(N(CCC#N)CCC#N)ccc1/C=C1N=C(/C=C/c2ccccc2)OC(=O)N\1 | > 3.39 | > 3.39 µM | –
14 | COC(=O)N/N=C(\Cc1ccccc1)CN(C)C | > 200 | > 200 µM | –
15 | CCc1c(Cc2ccccc2)n(COCC[Se]c2ccccc2)c(=O)[nH]c1=O | 4.27 | 28.8 µM | –
16 | O=C1c2ccccc2C(=O)N1CCn1nc(-c2ccccc2)cc(-c2ccccc2)c1=O | > 12.3 | > 12.3 µM | –
17 | CC1SC2=NC3=C(c4ccccc4C3=O)C(c3ccc(Br)cc3)N2C1=O (stereo unspecified) | > 32.4 | > 32.4 µM | –
18 | Cc1ccc(S(=O)C[C@](NC(=O)OCc2ccccc2)(Sc2ccccc2)C(F)F)cc1 (stereo partly specified) | > 200 | 10.7 µM | –
19 | COc1cc2nncc(SCc3ccc(Cl)cc3)c2cc1OC | > 77.6 | > 77.6 µM | –
20 | O=C(CSc1nnc(Cc2ccccc2)o1)Nc1cccc([N+](=O)[O-])c1 | > 97.7 | > 97.7 µM | –
21 | CC(C)(C)C1CCC(C[Se]c2ccc(Cl)cc2)([N+](=O)[O-])CC1 (stereo unspecified) | – | – | inactive
22 | O=C(O)CCc1ccc2c(c1)CC1(Cc3ccccc3C1)C2 | > 200 | 102 µM | –

Row | Structure (SMILES) | EC50 [µM] | IC50 | outcome
23 | Oc1ccc(Cc2cc(Cc3ccc(O)cc3)cc(Cc3ccc(O)cc3)c2)cc1 | 93.3 | > 100 µM | –
24 | COc1cc(OC)c2nc(C)c(CCCl)c(Cl)c2c1 | > 200 | > 200 µM | –
25 | O=C(NC1CCN(Cc2ccccc2)CC1)c1cccc(I)c1 | > 200 | 33.9 µM | –
26 | CO[C@@H]1O[C@H](C(=O)c2ccccc2)[C@H]2OC(C)(C)O[C@@H]12 | > 200 | 45.7 µM | –
27 | COC1=C(C)C(=O)c2nc(COC(C)=O)ccc2C1=O | – | – | inactive
28 | CN(CCc1ccc(Br)cc1)CCN1CCCCC1 | > 123 | 57.5 µM | –
29 | O=C(N/C(=C\c1ccc(Cl)cc1)c1nc2ccccc2[nH]1)c1ccccc1 | > 69.2 | 58.9 µM | –
30 | Cc1nc(-n2nc(-c3ccccc3)cc2-c2ccccc2)sc1C(=O)/C=C/c1cccc([N+](=O)[O-])c1 | > 14.5 | 11 µM | –
31 | CCC(C#N)N(Cc1ccc(CN(C(=O)c2ccccc2)C(C#N)CC)cc1)C(=O)c1ccccc1 (stereo unspecified) | > 200 | 8.71 µM | –
32 | COc1ccc(-c2cc(-c3cc(OC)c(OC)c(OC)c3)cc(-c3cc4ccccc4oc3=O)n2)cc1 | > 200 | 155 µM | –
33 | COc1ccc(C2CC(=O)c3c(cc(OC)c(OC)c3OC)O2)cc1 (stereo unspecified) | > 200 | 20.9 µM | –
34 | CCC(c1nc2ccccc2c(=O)n1NC(=O)C(C)(C)C)C1(O)CCCCC1 (stereo unspecified) | > 200 | 107 µM | –
35 | COc1ccc(OC)c(-c2csc(=O)s2)c1 | > 269 | > 269 µM | –
36 | COC(=O)c1c(C)cccc1/C=C1\Cc2cc(C)cc(C)c2C1=O | > 200 | 151 µM | –
37 | COc1ccc(C2(C)OC(=O)c3ccccc32)c2ccccc12 (stereo unspecified) | – | – | inactive
38 | CCOC(=O)CN(c1scc(-c2ccccc2)c1C(=O)OCC)S(=O)(=O)c1ccc(C)cc1 | > 200 | 9.33 µM | –
39 | CC(C)(CC#N)c1cc(CC(C)(C)c2cc(CC(C)(C)c3cc(C(C)(C)C4(C)OCCO4)no3)no2)no1 | > 200 | 60.3 µM | –
40 | CCC1(O)C(=O)OCc2c1cc(-c1ccc(Cl)cc1)nc2OC (stereo unspecified) | > 200 | > 200 µM | –
41 | COc1c(Cl)cc(C(=CCN[C@@H]2CC[C@@]3(C)[C@@H](CC[C@@H]4[C@@H]3CC[C@]3(C)[C@@H]([C@H](C)CCCC(C)C)CC[C@@H]43)C2)c2cc(Cl)c(OC)c(C(=O)O)c2)cc1C(=O)O | > 100 | 61.7 µM | –
42 | Nc1ncnc2oc(C3OC(COC(=O)c4ccccc4)C(OC(=O)c4ccccc4)C3OC(=O)c3ccccc3)nc12 (stereo unspecified) | > 200 | 148 µM | –
43 | Cc1cc2nc(NS(=O)(=O)c3cc(C)c(Cl)cc3S)[nH]c2cc1C | > 200 | > 200 µM | –
44 | COc1ccc2nc3cc(Cl)ccc3c(NCCNC(=O)Cn3c(=O)n(C)c(=O)c4c3nc3c(c(=O)n(C)c(=O)n3C)[n+]4[O-])c2c1 | > 100 | 39.8 µM | –

Row | Structure (SMILES) | EC50 [µM] | IC50 | outcome
45 | O=C1CSC(=S)N1c1ccccc1 | > 240 | 178 µM | –
46 | CCOC(=O)CN1C(=O)C(=O)c2ccccc21 | > 200 | 33.9 µM | –
47 | C[n+]1ccc(Nc2ccc(O)cc2)c2ccc(Cl)cc21 | > 603 | 11 µM | –
48 | CC(=O)Oc1c2ccsc2cc2ccsc12 | > 75.9 | 3.31 µM | –
49 | c1ccc(-c2nc3sc(-c4ccccn4)nc3s2)nc1 | – | – | inactive
50 | C=C1[C@H](O)[C@@]2(C(=O)N1OC)/C(=C/CC)C=CC(=O)C2O (stereo partly specified) | > 891 | 331 µM | –
51 | NC(N)=NS(=O)(=O)c1ccc(NC(=O)c2cccc3c(Nc4ccc(S(N)(=O)=O)cc4)c4ccccc4nc23)cc1 | > 43.7 | > 43.7 µM | –
52 | Cc1ccc2nsnc2c1[N+](=O)[O-] | > 257 | > 257 µM | –
53 | CC1C(c2ccccc2O)c2cc3c(cc2OC1N1CCCC1)OCO3 (stereo unspecified) | – | – | inactive
54 | Cc1[nH]c(=O)[nH]c(=O)c1/C=C/C(=O)NC(CO)CS(=O)Cc1ccccc1 (stereo unspecified) | > 200 | > 200 µM | –
55 | O=C1CCC(C(=O)N2CSCC2C(=O)O)N1 (stereo unspecified) ([pGlu]-[Thz]-OH; configuration not given here) | > 200 | > 200 µM | –
56 | CCN(CC)Cc1ccccc1CC(=O)N1c2ccccc2C(=O)Nc2cccnc21 | > 200 | > 200 µM | –
57 | Cc1[nH]nc(-c2ccon2)c1N=O | > 200 | 8.91 µM | –
58 | CC(C)(C)C1=C(Br)C(F)(C(C)(C)C)OP1(=O)c1ccccc1 (stereo unspecified) | > 200 | 25.7 µM | –
59 | CCO/C(=C/C(=O)OC)NCCc1c[nH]c2ccccc12 | > 138 | 135 µM | –
60 | CC(=O)N=S(NC(=O)c1ccc(C)cc1)C(Cl)(Cl)Cl (stereo unspecified) | > 200 | 33.9 µM | –
61 | O=C(O)c1ccc2c[n+]3ccccc3cc2c1 | > 427 | > 427 µM | –
62 | O=C(O)C1=CN=C(C(=O)O)NN1 | > 1150 | 617 µM | –
63 | COC(=O)C1=C(C(=O)OC)C2(C)CCC(=O)C1O2 (stereo unspecified) | > 200 | > 200 µM | –
64 | N#CC(C(=O)C(=O)C(C#N)c1ccc(Br)cc1)c1ccc(Br)cc1 (stereo unspecified) | – | – | inactive
65 | COc1ccc2[nH]c3c4c(cc(-c5ccccc5)c3c2c1)C(=O)N(c1ccccc1)C4=O | > 9.12 | > 9.12 µM | –
66 | O=C1c2cnccc2Cc2cccc3c2N1c1ccccc1S3 | > 22.9 | > 22.9 µM | –

Row | Structure (SMILES) | EC50 [µM] | IC50 | outcome
67 | CCCCCCCCCCCC[N+]12CC[N+](CCN)(CC1)CC2 | > 251 | 56.2 µM | –
68 | C/C(=N\NC(=S)N1CCN(C2CCCCCC2)CC1)c1ccccn1 | > 138 | 0.955 µM | –
69 | COc1c2c(c3c(c1C1OC(C)[C@@H](C)O1)CC(C)(C)O3)C(=O)c1ccccc1C2=O (stereo partly specified) | > 63.1 | > 63.1 µM | –
70 | CN(C)CCCNc1nnc(NCCCN(C)C)c2c(=O)c3sccc3[nH]c12 | > 20 | 2.69 µM | –
71 | COC12C(COC(=O)NCCO)C3=C(C(=O)C(C)=C(N)C3=O)N1CC1NC12 (stereo unspecified) | > 331 | 1.15 µM | –
72 | CCOc1ccccc1NC(=O)C(=O)Cc1nc2ccccc2s1 | – | – | inactive
73 | Cc1nc(Nc2nc3ccccc3[nH]2)[nH]c(=O)c1CCO | > 200 | > 200 µM | –
74 | COC(=O)[C@]1(C)CCC[C@]2(C)c3ccc(C(C)C)cc3C(=O)C[C@@H]12 | > 200 | 31.6 µM | –
75 | COc1cc([C@@H]2CC3(C)OC(=O)C2CC3C)cc(OC)c1OC (stereo partly specified) | > 562 | > 562 µM | –
76 | CN(C)c1nc(N(C)C)nc(N(C)CN(C)c2ccc(Cl)cc2)n1 | > 50.1 | > 50.1 µM | –
77 | CC(C(=O)N1C(=O)N(C(=O)[C@H](C)C(O)c2ccccc2)[C@H](c2ccccc2)[C@H]1c1ccccc1)[C@@H](O)c1ccccc1 (stereo partly specified) | > 200 | 28.2 µM | –
78 | Nc1nc(N)c(CCCCc2ccccc2)c(C=O)n1 | – | – | inactive
79 | CCCc1cc(=O)oc2c3c(cc(OC)c12)O[C@H](C)C(C)[C@H]3O (stereo partly specified) | > 200 | 51.3 µM | –
80 | O=C(NCCCN(CCCCN(CCCNC(=O)C(F)(F)F)CCCc1ccccc1)CCCc1ccccc1)C(F)(F)F | > 200 | 9.77 µM | –
81 | NNC(=O)CNC(=O)c1ccc(Cl)cc1Cl | > 27.5 | > 27.5 µM | –
82 | N#Cc1c(N)oc(-c2ccccc2)c1-c1ccccc1 | – | – | inactive
83 | Cc1cc(C)c(OC(=O)Nc2cccc3ccccc23)c(-c2ccccc2)c1 | > 200 | 19.5 µM | –
84 | O=C(OCC1CCCN2CCCCC12)c1cccnc1 (stereo unspecified) | > 200 | > 200 µM | –
85 | NC(=O)NC1=NC(Cc2ccccc2)C(=O)N1Cc1ccccc1 (stereo unspecified) | > 200 | 182 µM | –
86 | COC(=O)C(CC=O)C(=O)C(=O)Nc1cccc(C(F)(F)F)c1 (stereo unspecified) | > 282 | > 282 µM | –
87 | CC(C)(C)OC(=O)N1N=CCC1c1ccccc1 (stereo unspecified) | > 200 | > 200 µM | –
